Laboratory results from US4877893A, “Process for the preparation of 2-(O-alkyl)-2-thio-1,3,2-oxathiophospholanes” (priority 1987, dated 1989).

Tests used:
Alternaria sp. = test: Fungicidal effect on paprika seeds on agar, colony diameter; type: cell-based; details: 5th day, control 36.62
Experimental: (§1) The test is carried out on paprika seeds placed on agar nutrient medium and impregnated with phytopathogenic Fungi (Alternaria sp., Penicillium sp., Sclerotinia sp.). The paprika seeds are treated with various doses of 2-(0-2'-chloroethyl)-2-thio-1,3,2-oxathiophospholane (Compound No. 1 of Table I) and the known fungicidal agent Aliette, respectively.
(§2) The concentration data relate to the active ingredient. Treatment is carried out by using a 20 EC prepared according to Example 27. Evaluation is carried out on the 5th day after treatment by measuring the diameter of the Fungi colonies.

Penicillium sp. = test: as above; type: cell-based; details: 5th day, control 23.35
Experimental: as §1, §2

Sclerotinia sp. = test: as above; type: cell-based; details: 5th day, control 41.50
Experimental: as §1, §2

Sclerotinia sclerotinia = test: Fungicidal effect on infected agar nutrient media, colony diameter; type: cell-based; details: 3rd day after treatment, untreated control 41.7
Experimental: Agar nutrient media (Diameter 70 MM, thickness 10 mm) infected by Sclerotonia sclerotinia suspension are treated with 20 EC formulations prepared according to Example 27 and comprising 1, 10, 100 and 1000 ppm, respectively of the active ingredient of the Formula I. The fungicidal effect of the compositions is evaluated on the 3rd day after treatment by measuring the diameter of the Fungi colonies.

Penicillium cyclopium = test: as above; type: cell-based; details: 7th day after treatment, untreated 26.5
Method in brief: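 Agar media (70 mm diameter, 10 mm thick) infected with Penicillium cyclopium were treated with EC formulations at 1, 10, 100 and 1000 ppm active ingredient. Fungal colony diameter was measured on day 7 after treatment.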

Alternaria tenuis = test: as above; type: cell-based; details: 5th day after treatment, untreated control 36.8
Method in brief: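 Agar media (70 mm diameter, 10 mm thick) infected with Alternaria tenuis, treated with EC formulations at 1, 10, 100 and 1000 ppm active ingredient. Fungicidal effect read on day 5 after treatment as fungal colony diameter.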

[1] = system: cotton seeds strongly infected by pathogens; test: Seed dressing test, shoot up %; type: in vivo; details: related to untreated control = 100
Excerpt: (§3) In this test cotton, maize, sunflower and sugar beet seeds strongly infected by pathogens and treated with different doses of 2-(0-2'-chloroethyl)-2-thio-1,3,2-oxathiophospholane (Compound No. 1) are used. The doses amount to 50, 100 and 200 g of active ingredient, respectively. As reference seeds being either untreated or treated with Mancozeb (manganese +zinc/-ethylene bis-dithiocarbamte) 0.8 kg/t +Benomyl (1-butyl carbamoyl-benzimidazole-2-methylcarbamate) 0.5 kg/t are used.
(§4) Compound No. 1 of the present invention is formulated as 50 WP in an analogous manner to Example 31. The test is carried out in six replicates, by sowing 10 seeds in each replicate. The results are evaluated by determining the shoot up % related to the control.

[2] = system: maize seeds strongly infected by pathogens; test: Seed dressing test, shoot up %; type: in vivo; details: related to untreated control = 100
Excerpt: as §3, §4

[3] = system: sugar beet seeds strongly infected by pathogens; test: Seed dressing test, shoot up %; type: in vivo; details: related to untreated control = 100
Excerpt: as §3, §4

[4] = system: sunflower seeds strongly infected by pathogens; test: Seed dressing test, shoot up %; type: in vivo; details: related to untreated control = 100
Excerpt: as §3, §4

[5] = system: Fusarium sp. and Alternaria sp.; test: Soil disinfection test, shoot up %; type: in vivo, cotton; details: 1 kg of active ingredient/ha; soil disinfectant granules; untreated control = 100
Experimental: (§5) The soil is watered and admixed with a Fusarium sp. and Alternaria sp. suspension. In the infected soil cotton and sugar beet seeds are sown, namely 10 seeds per replicate. Eight replicates are used in the test. The soil is treated with 2-(0-2'-chloroethyl)-2-thio-1,3,2-oxathiophospholane (Compound No. 1) in a dose of 1 kg of active ingredient.ha^- 1. Treatment is carried out with soil disinfectant granules prepared in an analogous manner to Example 33. Evaluation is carried out by determining the shoot up % related to the untreated control.

[6] = system: Fusarium sp. and Alternaria sp.; test: Soil disinfection test, shoot up %; type: in vivo, sugar beet; details: 1 kg of active ingredient/ha; soil disinfectant granules; untreated control = 100
Experimental: as §5

CCO[PH](=O)O [Aliette, aluminum-tris-(O-ethyl-phosphate), reference compound]
Diameter of Colony (MM) Alternaria (Alternaria sp.; 1 ppm): 34.05 MM | Diameter of Colony (MM) Alternaria (Alternaria sp.; 5 ppm): 35.16 MM | Diameter of Colony (MM) Alternaria (Alternaria sp.; 10 ppm): 29.41 MM | Diameter of Colony (MM) Alternaria (Alternaria sp.; 50 ppm): 26.13 MM | Diameter of Colony (MM) Alternaria (Alternaria sp.; 100 ppm): 19.16 MM | Diameter of Colony (MM) Alternaria (Alternaria sp.; 1000 ppm): 8.92 MM | Diameter of Colony (MM) Penicillium (Penicillium sp.; 1 ppm): 21.35 MM | Diameter of Colony (MM) Penicillium (Penicillium sp.; 5 ppm): 20.66 MM | Diameter of Colony (MM) Penicillium (Penicillium sp.; 10 ppm): 18.45 MM | Diameter of Colony (MM) Penicillium (Penicillium sp.; 50 ppm): 17.63 MM | Diameter of Colony (MM) Penicillium (Penicillium sp.; 100 ppm): 16.62 MM | Diameter of Colony (MM) Penicillium (Penicillium sp.; 1000 ppm): 10.15 MM | Diameter of Colony (MM) Sclerotinia (Sclerotinia sp.; 1 ppm): 40.45 MM | Diameter of Colony (MM) Sclerotinia (Sclerotinia sp.; 5 ppm): 39.64 MM | Diameter of Colony (MM) Sclerotinia (Sclerotinia sp.; 10 ppm): 36.44 MM | Diameter of Colony (MM) Sclerotinia (Sclerotinia sp.; 50 ppm): 28.06 MM | Diameter of Colony (MM) Sclerotinia (Sclerotinia sp.; 100 ppm): 22.40 MM | Diameter of Colony (MM) Sclerotinia (Sclerotinia sp.; 1000 ppm): 6.75 MM

S=P1(OCCCl)OCCS1 (centres unmarked) [Compound 1, 2-(O-2'-chloroethyl)-2-thio-1,3,2-oxathiophospholane]
Diameter of colony (mm) (Sclerotinia sclerotinia; 1 ppm): 39.4 mm | Diameter of colony (mm) (Sclerotinia sclerotinia; 10 ppm): 31.7 mm | Diameter of colony (mm) (Sclerotinia sclerotinia; 100 ppm): 3.5 mm | Diameter of colony (mm) (Sclerotinia sclerotinia; 1000 ppm): 0 mm | Diameter of colony (mm) (Penicillium cyclopium; 1 ppm): 23.2 mm | Diameter of colony (mm) (Penicillium cyclopium; 10 ppm): 20.0 mm | Diameter of colony (mm) (Penicillium cyclopium; 100 ppm): 8.0 mm | Diameter of colony (mm) (Penicillium cyclopium; 1000 ppm): 0 mm | Diameter of colony (mm) (Alternaria tenuis; 1 ppm): 33.5 mm | Diameter of colony (mm) (Alternaria tenuis; 10 ppm): 25.8 mm | Diameter of colony (mm) (Alternaria tenuis; 100 ppm): 7.6 mm | Diameter of colony (mm) (Alternaria tenuis; 1000 ppm): 0 mm | Diameter of Colony (MM) Alternaria (Alternaria sp.; 1 ppm): 33.50 MM | Diameter of Colony (MM) Alternaria (Alternaria sp.; 5 ppm): 32.25 MM | Diameter of Colony (MM) Alternaria (Alternaria sp.; 10 ppm): 25.87 MM | Diameter of Colony (MM) Alternaria (Alternaria sp.; 50 ppm): 16.75 MM | Diameter of Colony (MM) Alternaria (Alternaria sp.; 100 ppm): 7.62 MM | Diameter of Colony (MM) Alternaria (Alternaria sp.; 1000 ppm): 0 MM | Diameter of Colony (MM) Penicillium (Penicillium sp.; 1 ppm): 22.20 MM | Diameter of Colony (MM) Penicillium (Penicillium sp.; 5 ppm): 20.05 MM | Diameter of Colony (MM) Penicillium (Penicillium sp.; 10 ppm): 20.05 MM | Diameter of Colony (MM) Penicillium (Penicillium sp.; 50 ppm): 19.40 MM | Diameter of Colony (MM) Penicillium (Penicillium sp.; 100 ppm): 8.12 MM | Diameter of Colony (MM) Penicillium (Penicillium sp.; 1000 ppm): 0 MM | Diameter of Colony (MM) Sclerotinia (Sclerotinia sp.; 1 ppm): 39.37 MM | Diameter of Colony (MM) Sclerotinia (Sclerotinia sp.; 5 ppm): 40.62 MM | Diameter of Colony (MM) Sclerotinia (Sclerotinia sp.; 10 ppm): 31.75 MM | Diameter of Colony (MM) Sclerotinia (Sclerotinia sp.; 50 ppm): 10.62 MM | Diameter of Colony (MM) Sclerotinia (Sclerotinia sp.; 100 ppm): 3.50 MM | Diameter of Colony (MM) Sclerotinia (Sclerotinia sp.; 1000 ppm): 0 MM | Shoot up % Cotton ([1]; 50 g/t): 146% | Shoot up % Cotton ([1]; 100 g/t): 218% | Shoot up % Cotton ([1]; 200 g/t): 255% | Shoot up % Maize ([2]; 50 g/t): 121% | Shoot up % Maize ([2]; 100 g/t): 133% | Shoot up % Maize ([2]; 200 g/t): 125% | Shoot up % Sugar beet ([3]; 50 g/t): 205% | Shoot up % Sugar beet ([3]; 100 g/t): 312% | Shoot up % Sugar beet ([3]; 200 g/t): 156% | Shoot up % Sunflower ([4]; 50 g/t): 132% | Shoot up % Sunflower ([4]; 100 g/t): 154% | Shoot up % Sunflower ([4]; 200 g/t): 129% | Shoot up % Cotton [5]: 239% | Shoot up % Sugar beet [6]: 346%

CCCC(C)OP1(=S)OC(C)C(C)S1 (centres unmarked) [Compound 66]
Diameter of colony (mm) (Sclerotinia sclerotinia; 1 ppm): 34.8 mm | Diameter of colony (mm) (Sclerotinia sclerotinia; 10 ppm): 28.8 mm | Diameter of colony (mm) (Sclerotinia sclerotinia; 100 ppm): 4.0 mm | Diameter of colony (mm) (Sclerotinia sclerotinia; 1000 ppm): 0 mm | Diameter of colony (mm) (Penicillium cyclopium; 1 ppm): 25.0 mm | Diameter of colony (mm) (Penicillium cyclopium; 10 ppm): 18.6 mm | Diameter of colony (mm) (Penicillium cyclopium; 100 ppm): 7.5 mm | Diameter of colony (mm) (Penicillium cyclopium; 1000 ppm): 0 mm | Diameter of colony (mm) (Alternaria tenuis; 1 ppm): 34.5 mm | Diameter of colony (mm) (Alternaria tenuis; 10 ppm): 24.4 mm | Diameter of colony (mm) (Alternaria tenuis; 100 ppm): 7.0 mm | Diameter of colony (mm) (Alternaria tenuis; 1000 ppm): 0 mm

CC(C)CCOP1(=S)OCCS1 (centres unmarked) [Compound 67]
Diameter of colony (mm) (Sclerotinia sclerotinia; 1 ppm): 36.3 mm | Diameter of colony (mm) (Sclerotinia sclerotinia; 10 ppm): 29.6 mm | Diameter of colony (mm) (Sclerotinia sclerotinia; 100 ppm): 3.6 mm | Diameter of colony (mm) (Sclerotinia sclerotinia; 1000 ppm): 0 mm | Diameter of colony (mm) (Penicillium cyclopium; 1 ppm): 25.1 mm | Diameter of colony (mm) (Penicillium cyclopium; 10 ppm): 19.3 mm | Diameter of colony (mm) (Penicillium cyclopium; 100 ppm): 7.0 mm | Diameter of colony (mm) (Penicillium cyclopium; 1000 ppm): 0 mm | Diameter of colony (mm) (Alternaria tenuis; 1 ppm): 35.4 mm | Diameter of colony (mm) (Alternaria tenuis; 10 ppm): 23.8 mm | Diameter of colony (mm) (Alternaria tenuis; 100 ppm): 5.3 mm | Diameter of colony (mm) (Alternaria tenuis; 1000 ppm): 0 mm
